{"source": "patent US9708259B2", "about": "(Hoffmann-La Roche Inc., priority 2013, dated 2017)", "key": {"ratM1": {"target": "T1, ratM1 (Rattus norvegicus, UniProt P08482)", "T1 construct": "expressed in transfected cells; host or cells: CHO cells (stated generally for the assay, not specifically for rat M1)", "T1 sequence (P08482 1-460)": "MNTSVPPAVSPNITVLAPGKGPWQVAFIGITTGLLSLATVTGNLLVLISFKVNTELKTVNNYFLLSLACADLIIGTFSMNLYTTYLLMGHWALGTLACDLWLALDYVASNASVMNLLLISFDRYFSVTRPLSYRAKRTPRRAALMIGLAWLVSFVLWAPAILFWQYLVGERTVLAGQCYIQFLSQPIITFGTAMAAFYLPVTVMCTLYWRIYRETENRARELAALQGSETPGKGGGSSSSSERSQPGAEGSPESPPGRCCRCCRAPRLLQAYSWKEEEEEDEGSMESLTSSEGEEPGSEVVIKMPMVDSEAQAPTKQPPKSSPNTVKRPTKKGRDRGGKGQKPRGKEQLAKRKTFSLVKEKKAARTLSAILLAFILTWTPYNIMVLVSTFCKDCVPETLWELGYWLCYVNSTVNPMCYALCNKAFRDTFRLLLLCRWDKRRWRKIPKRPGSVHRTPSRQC", "experiment": "M1 PAM assay (FLIPR intracellular calcium), rat M1", "assay_type": "cell-based", "conditions": "rat M1, FLIPR Ca2+; second value of the cell; read-out: ratM1 EC50"}, "human M1": {"target": "T2, human M1 (Homo sapiens, UniProt P11229)", "T2 construct": "expressed in transfected cells; host or cells: CHO cells", "T2 sequence (P11229 1-460)": "T1 sequence (P08482 1-460) with V5A, S254T, S309P, K320R, G337A, V413I", "experiment": "M1 PAM assay (FLIPR intracellular calcium), human M1", "assay_type": "cell-based", "experimental": "The assay study the effect of several concentrations of test compounds on basal or acetylcholine-stimulated Ca^2+ levels using FLIPR.\nCHO human M1 are plated the day before the experiments at 2×10^5 cells/ml in PDL BioCoat 96 well black/clear plate (Becton 35 4640). The cells are grown at 37° C. and 5% CO2 in the following medium: F12 Nut Mix (Gibco 21765), 10% FCS heat inactivated (GIBCO 16000-044), 1% Pen Strep (Gibco,15140) and 200 μg/ml Geneticin (Gibco 11811). On the day of the experiment, the medium was removed and replaced by […] of dye loading buffer containing Hanks Balanced Salt solution (HBSS, 14065-049, Gibco) with 20 mM HEPES (Gibco 15630-056), 2 mM Probenicid (Sigma P8761), […] ester (Molecular Probes F-14202), 10% Pluronic acid Molecular Probes P-3000) pH=7.4 and incubated at 37° C. After 60 minutes extracellular dye was removed and the cells were washed five times with FLIPR buffer containing HBSS (Gibco 14065-049) with 20 mM HEPES (Gibco, 15630-056), 2 mM Probenicid (Sigma P8761) pre-warmed at 37° C. using and Ebml cell washer leaving […] of FLIPR buffer in each well. The cell plate and the diluted compounds (1% DMSO final concentration) are placed on the platform of the FLIPR and the door closed. A signal test to check background fluorescence and basal fluorescence signal is performed. Laser intensity is adjusted if necessary. Two minutes preincubation with the diluted test compounds is provide to determine any agonist activity on the M1 receptor by comparison to 30 nM Acetylcholine control. In order to determine any modulator activity the diluted compounds were added to cells and after two minutes preincubation, the EC20 of acetylcholine is added followed by another two minutes preincubation before the measurement of intracellular Ca^2+ with a FLIPR (Molecular Devices)."}, "[1]": {"conditions": "CHO human M1 cells, FLIPR Ca2+, with EC20 of acetylcholine, first value of the cell, read-out: hM1 EC50"}}, "note": "Numbering of substitutions follows the chain as printed. Read-outs that look alike come from different tables or passages of the source.", "data": [{"smiles": "Cn1cc(-c2ccc(Cn3cc(C(=O)N[C@H]4CCCC[C@]4(C)O)c4c(F)cccc43)c(F)c2)cn1", "note": "(racemic) [Example 18, 4-fluoro-1-(2-fluoro-4-(1-methyl-1H-pyrazol-4-yl)benzyl)-N-((1SR,2SR)-2-hydroxy-2-methylcyclohexyl)-1H-indole-3-carboxamide]", "values": [{"measurement": "EC50", "setting": "ratM1", "result": 185, "unit": "nM"}, {"measurement": "EC50", "setting": "human M1; [1]", "result": 61.2, "unit": "nM"}]}, {"smiles": "Cn1cc(-c2ccc(Cn3cc(C(=O)N[C@H]4CCOC[C@@H]4O)c4c(F)cccc43)cc2)cn1", "note": "(single isomer, unassigned) [Example 55, 4-fluoro-N-((3R,4S) or (3S,4R)-3-hydroxytetrahydro-2H-pyran-4-yl)-1-(4-(1-methyl-1H-pyrazol-4-yl)benzyl)-1H-indole-3-carboxamide]", "values": [{"measurement": "EC50", "setting": "ratM1", "result": 2.82, "unit": "nM"}, {"measurement": "EC50", "setting": "human M1; [1]", "result": 2.11, "unit": "nM"}]}, {"smiles": "CNC(=O)c1ccc(Cn2cc(CC(=O)N[C@H]3CCOC[C@@H]3O)c3c(F)cccc32)cc1", "note": "[Example 98, 4-((4-fluoro-3-(2-((3R,4S)-3-hydroxytetrahydro-2H-pyran-4-ylamino)-2-oxoethyl)-1H-indol-1-yl)methyl)-N-methylbenzamide]", "values": [{"measurement": "EC50", "setting": "ratM1", "result": 134, "unit": "nM"}, {"measurement": "EC50", "setting": "human M1; [1]", "result": 32, "unit": "nM"}]}, {"smiles": "Cc1nc(-c2ccc(Cn3cc(C(=O)N[C@H]4CCOC[C@@H]4O)c4c(F)cccc43)cc2)no1", "note": "[Example 83, 4-fluoro-N-((3R,4S)-3-hydroxytetrahydro-2H-pyran-4-yl)-1-(4-(5-methyl-1,2,4-oxadiazol-3-yl)benzyl)-1H-indole-3-carboxamide]", "values": [{"measurement": "EC50", "setting": "ratM1", "result": 160, "unit": "nM"}, {"measurement": "EC50", "setting": "human M1; [1]", "result": 184, "unit": "nM"}]}, {"smiles": "Cc1ccc(F)c2c(C(=O)N[C@H]3CCCC[C@@H]3O)cn(Cc3ccc(-c4cnn(C)c4)cc3F)c12", "note": "[Example 45, 4-fluoro-1-(2-fluoro-4-(1-methyl-1H-pyrazol-4-yl)benzyl)-N-((1S,2S)-2-hydroxycyclohexyl)-7-methyl-1H-indole-3-carboxamide]", "values": [{"measurement": "EC50", "setting": "ratM1", "result": 74.1, "unit": "nM"}, {"measurement": "EC50", "setting": "human M1; [1]", "result": 36.1, "unit": "nM"}]}, {"smiles": "O=C(N[C@H]1CCCC[C@@H]1O)c1cn(Cc2cccc(Cl)c2)c2cccc(F)c12", "note": "[Example 39, 1-(3-chlorobenzyl)-4-fluoro-N-((1S,2S)-2-hydroxycyclohexyl)-1H-indole-3-carboxamide]", "values": [{"measurement": "EC50", "setting": "human M1", "result": 205, "unit": "nM"}]}, {"smiles": "Cn1cc(-c2cccc(Cn3cc(C(=O)N[C@H]4CCCC[C@@H]4O)c4c(F)cccc43)c2)cn1", "note": "[Example 35, 4-fluoro-N-((1S,2S)-2-hydroxycyclohexyl)-1-(3-(1-methyl-1H-pyrazol-4-yl)benzyl)-1H-indole-3-carboxamide]", "values": [{"measurement": "EC50", "setting": "human M1; [1]", "result": 226, "unit": "nM"}]}, {"smiles": "Cn1cc(-c2ccc(Cn3cc(C(=O)NC4CCCCC4(F)F)c4c(F)cccc43)c(F)c2)cn1", "note": "(centres unmarked) [Example 25, N-(2,2-difluorocyclohexyl)-4-fluoro-1-(2-fluoro-4-(1-methyl-1H-pyrazol-4-yl)benzyl)-1H-indole-3-carboxamide]", "values": [{"measurement": "EC50", "setting": "human M1; [1]", "result": 359, "unit": "nM"}]}, {"smiles": "Cn1cc(-c2ccc(Cn3cc(C(=O)N[C@H]4CCCC[C@@H]4O)c4c(F)c(F)ccc43)cc2)cn1", "note": "[Example 57, 4,5-difluoro-N-((1S,2S)-2-hydroxycyclohexyl)-1-(4-(1-methyl-1H-pyrazol-4-yl)benzyl)-1H-indole-3-carboxamide]", "values": [{"measurement": "EC50", "setting": "human M1; [1]", "result": 139, "unit": "nM"}]}, {"smiles": "O=C(N[C@H]1CCCC[C@@H]1O)c1cn(Cc2ccc(OC(F)(F)F)cc2)c2cccc(F)c12", "note": "[Example 34, 4-fluoro-N-((1S,2S)-2-hydroxycyclohexyl)-1-(4-(trifluoromethoxy)benzyl)-1H-indole-3-carboxamide]", "values": [{"measurement": "EC50", "setting": "human M1", "result": 342, "unit": "nM"}]}, {"smiles": "CNC(=O)c1ccc(Cn2cc(C(=O)NC3CCSCC3)c3c(F)cccc32)cc1F", "note": "[Example 167, 4-fluoro-1-(3-fluoro-4-(methylcarbamoyl)benzyl)-N-(tetrahydro-2H-thiopyran-4-yl)-1H-indole-3-carboxamide]", "values": [{"measurement": "EC50", "setting": "human M1; [1]", "result": 47, "unit": "nM"}]}, {"smiles": "COc1ccc(Cn2cc(C(=O)N[C@H]3CCCC[C@@H]3O)c3c(F)cccc32)c(F)c1", "note": "[Example 28, 4-fluoro-1-(2-fluoro-4-methoxybenzyl)-N-((1S,2S)-2-hydroxycyclohexyl)-1H-indole-3-carboxamide]", "values": [{"measurement": "EC50", "setting": "human M1", "result": 272, "unit": "nM"}]}, {"smiles": "Cn1cc(-c2ccc(Cn3nc(C(=O)NC4CCOCC4)c4c(F)cccc43)cc2)cn1", "note": "[Example 69, 4-fluoro-1-(4-(1-methyl-1H-pyrazol-4-yl)benzyl)-N-(tetrahydro-2H-pyran-4-yl)-1H-indazole-3-carboxamide]", "values": [{"measurement": "EC50", "setting": "human M1; [1]", "result": 344, "unit": "nM"}]}, {"smiles": "CNC(=O)c1ccc(Cn2cc(C(=O)NC3CCOC(C)(C)C3)c3c(F)cccc32)cc1F", "note": "(centres unmarked) [Example 166, N-(2,2-dimethyltetrahydro-2H-pyran-4-yl)-4-fluoro-1-(3-fluoro-4-(methylcarbamoyl)benzyl)-1H-indole-3-carboxamide]", "values": [{"measurement": "EC50", "setting": "human M1; [1]", "result": 35, "unit": "nM"}]}, {"smiles": "CCOC(=O)Nc1ccc(Cn2cc(C(=O)N[C@H]3CCCC[C@@H]3O)c3c(F)cccc32)cc1", "note": "[Example 85, ethyl 4-((4-fluoro-3-((1S,2S)-2-hydroxycyclohexylcarbamoyl)-1H-indol-1-yl)methyl)phenylcarbamate]", "values": [{"measurement": "EC50", "setting": "human M1; [1]", "result": 42.9, "unit": "nM"}]}, {"smiles": "CN(C)C(=O)c1cccc(Cn2cc(C(=O)N[C@H]3CCCC[C@@H]3O)c3c(F)cccc32)c1", "note": "[Example 90, 1-(3-(dimethylcarbamoyl)benzyl)-4-fluoro-N-((1S,2S)-2-hydroxycyclohexyl)-1H-indole-3-carboxamide]", "values": [{"measurement": "EC50", "setting": "human M1; [1]", "result": 341, "unit": "nM"}]}, {"smiles": "CNC(=O)c1ccc(Cn2cc(C(=O)NC3CCOCC3C)c3c(F)cccc32)cc1F", "note": "(centres unmarked) [Example 168, 4-fluoro-1-(3-fluoro-4-(methylcarbamoyl)benzyl)-N-(3-methyltetrahydro-2H-pyran-4-yl)-1H-indole-3-carboxamide]", "values": [{"measurement": "EC50", "setting": "human M1; [1]", "result": 97, "unit": "nM"}]}, {"smiles": "CNC(=O)c1ccc(Cn2cc(C(=O)NC3CCCCC3(F)F)c3c(F)cccc32)cc1F", "note": "(centres unmarked) [Example 165, N-(2,2-difluorocyclohexyl)-4-fluoro-1-(3-fluoro-4-(methy7lcarbamoyl)benzyl)-1H-indole-3-carboxamide]", "values": [{"measurement": "EC50", "setting": "human M1; [1]", "result": 43, "unit": "nM"}]}, {"smiles": "NC(=O)c1cccc(Cn2cc(C(=O)N[C@H]3CCCC[C@@H]3O)c3c(F)cccc32)c1", "note": "[Example 81, 1-(3-carbamoylbenzyl)-4-fluoro-N-((1S,2S)-2-hydroxycyclohexyl)-1H-indole-3-carboxamide]", "values": [{"measurement": "EC50", "setting": "human M1; [1]", "result": 351, "unit": "nM"}]}, {"smiles": "CNC(=O)c1cccc(Cn2cc(C(=O)N[C@H]3CCCC[C@@H]3O)c3c(F)cccc32)c1", "note": "[Example 89, 4-fluoro-N-((1S,2S)-2-hydroxycyclohexyl)-1-(3-(methylcarbamoyl)benzyl)-1H-indole-3-carboxamide]", "values": [{"measurement": "EC50", "setting": "human M1; [1]", "result": 319, "unit": "nM"}]}, {"smiles": "CS(=O)(=O)c1ccc(Cn2cc(C(=O)N[C@H]3CCCC[C@@H]3O)c3c(F)cccc32)cc1", "note": "[Example 82, 4-fluoro-N-((1S,2S)-2-hydroxycyclohexyl)-1-(4-(methylsulfonyl)benzyl)-1H-indole-3-carboxamide]", "values": [{"measurement": "EC50", "setting": "human M1; [1]", "result": 435, "unit": "nM"}]}, {"smiles": "N#Cc1cccc(Cn2cc(C(=O)N[C@H]3CCCC[C@@H]3O)c3c(F)cccc32)c1", "note": "[Example 40, 1-(3-cyanobenzyl)-4-fluoro-N-((1S,2S)-2-hydroxycyclohexyl)-1H-indole-3-carboxamide]", "values": [{"measurement": "EC50", "setting": "human M1", "result": 476, "unit": "nM"}]}, {"smiles": "O=C(N[C@H]1CCCC[C@@H]1O)c1cn(CC2CCN(c3ccccn3)CC2)c2cccc(F)c12", "note": "[Example 160, 4-Fluoro-N-((1S,2S)-2-hydroxycyclohexyl)-1-((1-(pyridin-2-yl)piperidin-4-yl)methyl)-1H-indole-3-carboxamide]", "values": [{"measurement": "EC50", "setting": "human M1; [1]", "result": 196, "unit": "nM"}]}, {"smiles": "O=C(N[C@H]1CCCC[C@@H]1O)c1cn(Cc2ccc(OC(F)F)cc2)c2cccc(F)c12", "note": "[Example 29, 1-(4-(difluoromethoxy)benzyl)-4-fluoro-N-((1S,2S)-2-hydroxycyclohexyl)-1H-indole-3-carboxamide]", "values": [{"measurement": "EC50", "setting": "human M1", "result": 226, "unit": "nM"}]}]}
